Experimental data from the supplement of paper PMC12076712.

Assays:
Assay in all cases: pIC50, kinobeads binding competition
UniProt Q02750 = target: UniProt Q02750
Method in brief: (§1)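 Live Jurkat cells were treated with nine compound concentrations (top 30 μM, 1:4 steps) or DMSO for 60 min at 37 °C before lysis. Alternatively, Jurkat lysate or a 1:1:1:1 HEK293/K-562/HepG2/placenta lysate mix was incubated with nine concentrations (top 30 μM, 1:5 steps) for 60 min at 4 °C. Kinobeads-bound proteins were digested and quantified by TMT10 LC-MS/MS. pIC50 came from logistic dose-response fits (R drc package) of fold changes versus DMSO, in biological duplicates.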

SRPK1 = SRPK1 (UniProt Q96SB4)
Sequence of SRPK1 (Q96SB4 whole entry): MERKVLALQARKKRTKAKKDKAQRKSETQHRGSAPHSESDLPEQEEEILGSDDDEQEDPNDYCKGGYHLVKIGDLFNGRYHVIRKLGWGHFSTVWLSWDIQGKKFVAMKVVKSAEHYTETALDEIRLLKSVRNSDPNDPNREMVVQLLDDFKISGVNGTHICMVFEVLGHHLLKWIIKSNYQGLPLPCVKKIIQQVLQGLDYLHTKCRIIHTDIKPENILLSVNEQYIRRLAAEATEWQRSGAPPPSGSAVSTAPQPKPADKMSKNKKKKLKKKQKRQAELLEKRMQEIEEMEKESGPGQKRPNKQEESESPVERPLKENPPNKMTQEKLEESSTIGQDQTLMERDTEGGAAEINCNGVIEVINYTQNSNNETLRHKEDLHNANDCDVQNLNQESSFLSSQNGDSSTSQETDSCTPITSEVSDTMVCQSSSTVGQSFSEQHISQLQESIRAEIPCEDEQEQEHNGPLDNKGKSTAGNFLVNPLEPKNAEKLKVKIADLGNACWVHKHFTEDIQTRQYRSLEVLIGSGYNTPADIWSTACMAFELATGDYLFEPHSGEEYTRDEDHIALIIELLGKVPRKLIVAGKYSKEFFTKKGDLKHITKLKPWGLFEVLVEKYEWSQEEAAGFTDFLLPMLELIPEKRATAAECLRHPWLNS
Method in brief: as §1

UniProt Q16512 = target: UniProt Q16512
Sequence of UniProt Q16512 (Q16512 whole entry, looked up): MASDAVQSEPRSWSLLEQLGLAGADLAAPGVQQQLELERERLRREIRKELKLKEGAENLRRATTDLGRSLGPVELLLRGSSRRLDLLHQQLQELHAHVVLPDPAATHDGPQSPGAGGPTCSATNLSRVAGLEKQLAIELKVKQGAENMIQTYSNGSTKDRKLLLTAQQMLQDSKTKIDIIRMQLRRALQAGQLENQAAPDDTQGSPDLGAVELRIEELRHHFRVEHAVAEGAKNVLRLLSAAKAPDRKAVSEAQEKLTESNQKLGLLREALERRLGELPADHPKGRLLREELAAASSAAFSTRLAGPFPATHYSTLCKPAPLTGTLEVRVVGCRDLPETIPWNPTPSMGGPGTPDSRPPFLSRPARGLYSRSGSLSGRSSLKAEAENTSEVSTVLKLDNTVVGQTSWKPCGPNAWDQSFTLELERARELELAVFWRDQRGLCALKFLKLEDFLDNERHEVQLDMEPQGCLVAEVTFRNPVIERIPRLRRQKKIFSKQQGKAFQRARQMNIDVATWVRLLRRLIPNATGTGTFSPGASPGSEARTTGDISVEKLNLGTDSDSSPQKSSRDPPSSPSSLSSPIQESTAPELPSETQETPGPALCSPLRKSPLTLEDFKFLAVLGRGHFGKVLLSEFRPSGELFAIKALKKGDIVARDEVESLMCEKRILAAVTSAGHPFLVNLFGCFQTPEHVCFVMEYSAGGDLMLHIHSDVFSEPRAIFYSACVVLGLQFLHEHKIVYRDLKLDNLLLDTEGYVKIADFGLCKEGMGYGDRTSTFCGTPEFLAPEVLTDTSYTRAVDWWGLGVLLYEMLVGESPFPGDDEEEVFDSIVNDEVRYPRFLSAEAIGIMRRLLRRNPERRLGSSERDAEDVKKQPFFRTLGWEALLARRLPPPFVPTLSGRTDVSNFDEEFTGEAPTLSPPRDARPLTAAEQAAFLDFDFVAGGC
Method in brief: as §1

STRADA = target: T1, STRADA (UniProt Q7RTN6)
T1 sequence (whole entry): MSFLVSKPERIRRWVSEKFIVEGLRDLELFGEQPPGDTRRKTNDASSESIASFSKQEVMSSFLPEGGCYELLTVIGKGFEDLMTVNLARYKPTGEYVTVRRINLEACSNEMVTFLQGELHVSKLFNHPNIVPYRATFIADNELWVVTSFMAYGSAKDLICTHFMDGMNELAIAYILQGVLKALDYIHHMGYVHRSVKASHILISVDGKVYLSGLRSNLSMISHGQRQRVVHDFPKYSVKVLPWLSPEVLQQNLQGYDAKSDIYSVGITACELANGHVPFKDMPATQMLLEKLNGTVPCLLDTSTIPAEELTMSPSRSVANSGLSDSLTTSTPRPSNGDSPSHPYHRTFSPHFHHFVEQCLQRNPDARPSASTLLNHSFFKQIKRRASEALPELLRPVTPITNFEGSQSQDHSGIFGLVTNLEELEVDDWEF
Method in brief: as §1

DAPK1 = DAPK1 (UniProt P53355); conditions: cell material: Lysate mix
Sequence of DAPK1 (P53355 whole entry, looked up): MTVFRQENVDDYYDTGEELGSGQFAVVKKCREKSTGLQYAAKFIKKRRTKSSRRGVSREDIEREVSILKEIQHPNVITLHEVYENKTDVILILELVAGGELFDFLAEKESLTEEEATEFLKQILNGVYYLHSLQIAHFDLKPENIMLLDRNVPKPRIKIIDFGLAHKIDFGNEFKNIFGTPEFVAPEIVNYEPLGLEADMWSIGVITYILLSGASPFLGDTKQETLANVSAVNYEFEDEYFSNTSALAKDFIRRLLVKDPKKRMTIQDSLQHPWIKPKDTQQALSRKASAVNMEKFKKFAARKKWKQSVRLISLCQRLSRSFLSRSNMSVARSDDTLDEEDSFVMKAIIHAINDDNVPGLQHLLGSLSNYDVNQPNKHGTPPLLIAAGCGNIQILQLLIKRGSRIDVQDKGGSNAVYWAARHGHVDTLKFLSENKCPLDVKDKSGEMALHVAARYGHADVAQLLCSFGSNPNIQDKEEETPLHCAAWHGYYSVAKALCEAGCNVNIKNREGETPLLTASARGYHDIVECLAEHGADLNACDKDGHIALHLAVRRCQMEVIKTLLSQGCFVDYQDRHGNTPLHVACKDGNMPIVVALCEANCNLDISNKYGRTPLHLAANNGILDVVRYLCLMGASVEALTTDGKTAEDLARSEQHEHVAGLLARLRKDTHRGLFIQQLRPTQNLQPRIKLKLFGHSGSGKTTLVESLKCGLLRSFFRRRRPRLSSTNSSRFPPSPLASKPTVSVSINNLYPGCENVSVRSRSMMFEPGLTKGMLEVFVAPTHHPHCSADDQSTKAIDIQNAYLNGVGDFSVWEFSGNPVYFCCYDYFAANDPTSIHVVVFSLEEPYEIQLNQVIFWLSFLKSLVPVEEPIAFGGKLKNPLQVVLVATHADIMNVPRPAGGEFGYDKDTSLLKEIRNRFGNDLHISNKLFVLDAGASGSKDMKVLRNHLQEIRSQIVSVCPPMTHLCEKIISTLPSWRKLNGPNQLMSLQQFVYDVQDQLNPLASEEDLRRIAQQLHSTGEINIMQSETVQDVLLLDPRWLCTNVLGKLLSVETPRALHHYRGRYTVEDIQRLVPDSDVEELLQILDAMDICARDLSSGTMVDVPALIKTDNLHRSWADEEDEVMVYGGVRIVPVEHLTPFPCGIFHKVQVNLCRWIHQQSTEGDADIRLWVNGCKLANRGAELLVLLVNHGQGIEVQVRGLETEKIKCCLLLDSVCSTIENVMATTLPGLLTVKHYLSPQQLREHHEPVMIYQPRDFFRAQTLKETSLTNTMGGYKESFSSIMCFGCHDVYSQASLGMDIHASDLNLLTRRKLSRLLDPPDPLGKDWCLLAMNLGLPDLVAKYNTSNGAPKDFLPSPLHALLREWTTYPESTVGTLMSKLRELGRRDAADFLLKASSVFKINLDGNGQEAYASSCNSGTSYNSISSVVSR
Method in brief: as §1

EPHA1 = target: T2, EPHA1 (UniProt P21709); conditions: cell material: Lysate mix
T2 sequence (whole entry): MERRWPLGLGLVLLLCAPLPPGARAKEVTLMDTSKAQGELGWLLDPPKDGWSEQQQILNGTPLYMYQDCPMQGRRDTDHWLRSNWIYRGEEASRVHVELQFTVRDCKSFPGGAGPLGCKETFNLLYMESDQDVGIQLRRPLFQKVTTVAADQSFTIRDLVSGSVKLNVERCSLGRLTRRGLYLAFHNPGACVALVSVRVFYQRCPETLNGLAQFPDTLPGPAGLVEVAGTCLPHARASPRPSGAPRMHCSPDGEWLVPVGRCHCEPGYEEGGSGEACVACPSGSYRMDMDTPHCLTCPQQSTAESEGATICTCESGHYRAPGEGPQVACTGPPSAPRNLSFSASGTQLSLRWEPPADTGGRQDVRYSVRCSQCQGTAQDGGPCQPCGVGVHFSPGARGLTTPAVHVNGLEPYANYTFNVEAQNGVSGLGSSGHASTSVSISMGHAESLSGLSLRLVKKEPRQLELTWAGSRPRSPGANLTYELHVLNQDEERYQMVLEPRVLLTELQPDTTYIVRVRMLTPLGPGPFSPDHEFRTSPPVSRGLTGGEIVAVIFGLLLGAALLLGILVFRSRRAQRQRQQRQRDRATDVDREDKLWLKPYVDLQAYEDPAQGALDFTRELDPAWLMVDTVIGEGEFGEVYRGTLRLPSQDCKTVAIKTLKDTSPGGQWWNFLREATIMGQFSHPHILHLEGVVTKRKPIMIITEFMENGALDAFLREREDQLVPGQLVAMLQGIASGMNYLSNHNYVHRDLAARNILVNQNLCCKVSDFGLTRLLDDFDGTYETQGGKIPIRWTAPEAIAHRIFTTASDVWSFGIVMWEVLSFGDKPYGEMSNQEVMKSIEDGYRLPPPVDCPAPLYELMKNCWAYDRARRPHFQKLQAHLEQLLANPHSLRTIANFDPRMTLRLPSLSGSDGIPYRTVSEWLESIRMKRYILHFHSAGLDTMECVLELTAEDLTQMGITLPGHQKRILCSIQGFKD
Method in brief: as §1

CASK = target: T3, CASK (UniProt O14936); conditions: cell material: Lysate mix
T3 sequence (whole entry): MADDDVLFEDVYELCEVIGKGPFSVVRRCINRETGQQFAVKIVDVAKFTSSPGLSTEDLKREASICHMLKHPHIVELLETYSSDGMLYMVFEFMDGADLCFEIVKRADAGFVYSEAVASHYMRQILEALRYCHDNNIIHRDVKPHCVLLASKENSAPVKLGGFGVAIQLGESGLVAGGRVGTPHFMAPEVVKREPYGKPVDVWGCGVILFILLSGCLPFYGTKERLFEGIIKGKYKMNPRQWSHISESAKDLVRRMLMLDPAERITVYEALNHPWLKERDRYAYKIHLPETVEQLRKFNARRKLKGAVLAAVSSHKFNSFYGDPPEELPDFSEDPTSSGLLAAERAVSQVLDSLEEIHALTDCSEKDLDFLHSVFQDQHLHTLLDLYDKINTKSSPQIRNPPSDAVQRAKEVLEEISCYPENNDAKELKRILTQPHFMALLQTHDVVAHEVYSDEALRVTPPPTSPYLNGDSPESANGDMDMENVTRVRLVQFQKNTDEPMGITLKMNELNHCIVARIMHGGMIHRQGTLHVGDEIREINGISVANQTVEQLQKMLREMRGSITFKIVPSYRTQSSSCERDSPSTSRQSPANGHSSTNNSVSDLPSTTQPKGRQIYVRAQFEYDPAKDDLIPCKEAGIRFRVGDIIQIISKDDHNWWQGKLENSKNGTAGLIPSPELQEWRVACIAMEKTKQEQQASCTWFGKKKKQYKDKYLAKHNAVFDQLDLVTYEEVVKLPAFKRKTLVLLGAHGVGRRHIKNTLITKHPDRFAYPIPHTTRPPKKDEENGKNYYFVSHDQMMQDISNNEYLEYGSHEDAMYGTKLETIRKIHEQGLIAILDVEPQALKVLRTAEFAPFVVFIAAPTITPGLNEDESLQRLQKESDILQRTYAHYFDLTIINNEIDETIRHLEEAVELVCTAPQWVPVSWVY
Method in brief: as §1

UniProt O95747 = target: UniProt O95747
Sequence of UniProt O95747 (O95747 whole entry, looked up): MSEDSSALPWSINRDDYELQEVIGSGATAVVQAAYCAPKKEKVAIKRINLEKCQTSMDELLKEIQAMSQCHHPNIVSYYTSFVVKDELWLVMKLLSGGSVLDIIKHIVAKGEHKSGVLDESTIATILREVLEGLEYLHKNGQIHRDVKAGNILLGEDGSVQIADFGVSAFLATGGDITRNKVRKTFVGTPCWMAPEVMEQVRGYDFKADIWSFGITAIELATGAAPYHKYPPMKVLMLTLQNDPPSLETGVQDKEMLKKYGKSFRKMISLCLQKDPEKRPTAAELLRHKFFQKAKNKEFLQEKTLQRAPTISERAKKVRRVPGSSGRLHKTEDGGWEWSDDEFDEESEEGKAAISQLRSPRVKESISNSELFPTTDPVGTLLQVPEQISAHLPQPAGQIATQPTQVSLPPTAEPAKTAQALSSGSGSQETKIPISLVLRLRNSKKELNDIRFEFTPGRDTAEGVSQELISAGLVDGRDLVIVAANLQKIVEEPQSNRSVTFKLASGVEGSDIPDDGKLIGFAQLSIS
Method in brief: as §1

PAK2 = PAK2 (UniProt Q13177)
Sequence of PAK2 (Q13177 whole entry): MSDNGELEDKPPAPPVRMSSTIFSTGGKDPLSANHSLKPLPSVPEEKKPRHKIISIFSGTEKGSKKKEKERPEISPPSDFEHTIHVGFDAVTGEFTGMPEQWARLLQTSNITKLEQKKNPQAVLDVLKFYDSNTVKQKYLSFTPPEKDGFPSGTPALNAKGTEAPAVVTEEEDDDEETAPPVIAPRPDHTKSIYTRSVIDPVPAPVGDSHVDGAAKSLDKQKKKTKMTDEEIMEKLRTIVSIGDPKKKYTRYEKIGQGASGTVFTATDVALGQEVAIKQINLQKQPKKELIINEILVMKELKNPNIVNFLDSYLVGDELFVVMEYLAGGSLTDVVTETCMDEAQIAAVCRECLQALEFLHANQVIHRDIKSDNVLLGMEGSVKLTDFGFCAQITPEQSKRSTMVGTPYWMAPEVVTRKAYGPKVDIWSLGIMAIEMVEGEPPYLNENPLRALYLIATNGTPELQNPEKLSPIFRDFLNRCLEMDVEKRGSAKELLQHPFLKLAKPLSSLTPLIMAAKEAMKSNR
Method in brief: as §1

AXL = AXL (UniProt P30530); conditions: cell material: Lysate mix
Sequence of AXL (P30530 whole entry): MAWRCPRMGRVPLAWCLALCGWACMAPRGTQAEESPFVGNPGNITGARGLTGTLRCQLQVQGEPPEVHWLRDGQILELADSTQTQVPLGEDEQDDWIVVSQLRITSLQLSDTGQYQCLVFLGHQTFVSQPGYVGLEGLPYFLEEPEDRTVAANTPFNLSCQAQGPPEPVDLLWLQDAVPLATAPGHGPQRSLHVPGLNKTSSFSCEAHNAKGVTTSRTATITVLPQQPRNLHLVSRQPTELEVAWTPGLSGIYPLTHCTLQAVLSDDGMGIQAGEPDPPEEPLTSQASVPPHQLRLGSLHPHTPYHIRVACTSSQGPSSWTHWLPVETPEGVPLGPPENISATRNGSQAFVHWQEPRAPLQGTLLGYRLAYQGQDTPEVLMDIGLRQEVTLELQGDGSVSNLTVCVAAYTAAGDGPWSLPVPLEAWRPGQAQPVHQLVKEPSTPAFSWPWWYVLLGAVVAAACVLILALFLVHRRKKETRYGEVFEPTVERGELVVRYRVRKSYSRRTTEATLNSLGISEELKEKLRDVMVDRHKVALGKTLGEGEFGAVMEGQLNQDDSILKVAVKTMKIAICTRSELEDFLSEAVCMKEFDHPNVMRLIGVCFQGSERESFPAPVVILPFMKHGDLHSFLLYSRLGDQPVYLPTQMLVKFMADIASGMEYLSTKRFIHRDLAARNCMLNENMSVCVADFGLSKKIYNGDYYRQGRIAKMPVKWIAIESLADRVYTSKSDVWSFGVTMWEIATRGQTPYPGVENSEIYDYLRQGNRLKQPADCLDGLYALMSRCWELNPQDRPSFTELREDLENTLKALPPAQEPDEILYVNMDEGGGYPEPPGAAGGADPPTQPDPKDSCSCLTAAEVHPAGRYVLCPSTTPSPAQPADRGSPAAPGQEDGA
Method in brief: as §1

LIMK2 = LIMK2 (UniProt P53671)
Method in brief: as §1

SMILES	pIC50 (UniProt Q02750; cell material: Lysate mix)	pIC50 (UniProt Q16512; cell material: Lysate mix)	pIC50 (STRADA; cell material: Lysate mix)	pIC50 (DAPK1)	pIC50 (EPHA1)	pIC50 (CASK)	pIC50 (UniProt O95747; cell material: Lysate mix)	pIC50 (AXL)	pIC50 (LIMK2; cell material: Lysate mix)	pIC50 (SRPK1; cell material: Lysate mix)	pIC50 (PAK2; cell material: Lysate mix)	pIC50 (UniProt Q02750; cell material: Jurkat lysate)	pIC50 (SRPK1; cell material: Jurkat cells)	pIC50 (UniProt Q16512; cell material: Jurkat lysate)	pIC50 (STRADA; cell material: Jurkat cells)	pIC50 (STRADA; cell material: Jurkat lysate)	pIC50 (UniProt O95747; cell material: Jurkat cells)	pIC50 (UniProt O95747; cell material: Jurkat lysate)	pIC50 (PAK2; cell material: Jurkat cells)	pIC50 (LIMK2; cell material: Jurkat cells)	pIC50 (LIMK2; cell material: Jurkat lysate)	pIC50 (UniProt Q02750; cell material: Jurkat cells)	pIC50 (UniProt Q16512; cell material: Jurkat cells)	pIC50 (PAK2; cell material: Jurkat lysate)
Cc1cc(Nc2cc(C(=O)NCCNC(=O)OC3CC/C=C/CCC3)nc(N3CCN(Cc4ccc(S(=O)(=O)F)cc4)CC3)n2)n[nH]1 (stereo not given)	< 4.52	< 4.52	< 4.52	< 4.52	< 4.52		< 4.52		< 4.52	< 4.52	< 4.52													
C#CCNC(=O)c1cc(Nc2cc(C3CC3)[nH]n2)nc(N2CCN(Cc3ccc(S(=O)(=O)F)cc3)CC2)n1	5.59	< 4.52	5.7	< 4.52	4.66		5.54	< 4.52	5.53			< 4.52	< 4.52	< 4.52	5.99	5.36	6.16	5.4	< 4.52	6.52	5.16	5.86	5.36	< 4.52
C#CCNC(=O)c1cc(Nc2cc(C)[nH]n2)nc(N2CCN(Cc3ccc(S(=O)(=O)F)cc3)CC2)n1		< 4.52		< 4.52	< 4.52	< 4.52																		

The next lines start with results.

pIC50 (UniProt Q02750; cell material: Lysate mix)	pIC50 (UniProt Q16512; cell material: Lysate mix)	pIC50 (STRADA; cell material: Lysate mix)	pIC50 (DAPK1)	pIC50 (EPHA1)	pIC50 (CASK)	pIC50 (UniProt O95747; cell material: Lysate mix)	pIC50 (AXL)	pIC50 (LIMK2; cell material: Lysate mix)	pIC50 (SRPK1; cell material: Lysate mix)	pIC50 (PAK2; cell material: Lysate mix)	SMILES	pIC50 (UniProt Q02750; cell material: Jurkat lysate)	pIC50 (SRPK1; cell material: Jurkat cells)	pIC50 (UniProt Q16512; cell material: Jurkat lysate)	pIC50 (STRADA; cell material: Jurkat cells)	pIC50 (STRADA; cell material: Jurkat lysate)	pIC50 (UniProt O95747; cell material: Jurkat cells)	pIC50 (UniProt O95747; cell material: Jurkat lysate)	pIC50 (PAK2; cell material: Jurkat cells)	pIC50 (LIMK2; cell material: Jurkat cells)	pIC50 (LIMK2; cell material: Jurkat lysate)	pIC50 (UniProt Q02750; cell material: Jurkat cells)	pIC50 (UniProt Q16512; cell material: Jurkat cells)	pIC50 (PAK2; cell material: Jurkat lysate)
< 4.52	< 4.52	< 4.52	< 4.52	< 4.52	< 4.52	< 4.52	4.72	< 4.52			O=C(NCCNC(=O)c1cc(Nc2cc(C3CC3)[nH]n2)nc(N2CCN(Cc3ccc(S(=O)(=O)F)cc3)CC2)n1)OC1CC/C=C/CCC1 (stereo not given)	< 4.52	< 4.52	< 4.52	5.78	< 4.52	5.3	< 4.52	< 4.52	6.33	< 4.52			
5.78		5.29	4.6		< 4.52	5.24		5.38			CCNC(=O)c1cc(Nc2cc(C3CC3)[nH]n2)nc(N2CCN(Cc3ccc(S(=O)(=O)F)cc3)CC2)n1													
	< 4.52			< 4.52	< 4.52	< 4.52	4.74	4.62			CCNC(=O)c1cc(Nc2cc(C)[nH]n2)nc(N2CCN(Cc3ccc(S(=O)(=O)F)cc3)CC2)n1													
